Data from US20230126391A1, “ALPHA-METHYL-SUBSTITUTED DIAZABICYCLO[4.3.1] DECANE DERIVATIVES FOR TREATMENT OF PSYCHIATRIC DISORDERS” (priority 2020, published 2023).

Experiments:
FKBP12.6 [1] = target: T1, FKBP12.6 (Homo sapiens, UniProt P68106); assay: Binding affinity of ligands with large RA (E3-ligase CRBN, PEG linker); settings: * = detection limit
Description: (§1) Further example of a diazabicyclo[4.3.1]decane with a large, bulky substituent in RA. The n corresponds to a varying PEG-linker length of 1-5. All tested ligands with a S-methyl group display increased binding affinity to the tested FKBPs while all R-isomers display decreased binding affinity as shown in the table below. In all cases, the addition of the methyl group in S-configuration increases the affinity to all measured FKBPs substantially.

FKBP52FK1 = target: T2, FKBP52FK1 (Homo sapiens, UniProt Q02790); assay: as above
T2 construct: FKBP52FK1
T2 sequence (Q02790 50-138 limits assumed): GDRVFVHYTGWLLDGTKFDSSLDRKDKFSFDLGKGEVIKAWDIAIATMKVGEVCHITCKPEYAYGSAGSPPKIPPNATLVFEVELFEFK
Description: as §1

FKBP51FK1 = target: T3, FKBP51FK1 (Homo sapiens, UniProt Q13451); assay: as above
T3 construct: FKBP51FK1
T3 sequence (Q13451 42-130 limits assumed): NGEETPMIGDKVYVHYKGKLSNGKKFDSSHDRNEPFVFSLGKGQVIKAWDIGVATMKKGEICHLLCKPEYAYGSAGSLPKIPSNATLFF
Description: as §1

FKBP12 [2] = target: T4, FKBP12 (Homo sapiens, UniProt P62942); assay: as above; settings: * = detection limit
Description: as §1

FKBP12.6 [3] = target: T1, FKBP12.6; assay: FP assay, binding to human FKBPs (Table 1); settings: fluorescence polarization assay
FKBP51 = target: T5, FKBP51 (Homo sapiens, UniProt Q13451); assay: FP assay, binding to human FKBPs (Table 1); settings: fluorescence polarization assay
T5 sequence (Q13451 1-457): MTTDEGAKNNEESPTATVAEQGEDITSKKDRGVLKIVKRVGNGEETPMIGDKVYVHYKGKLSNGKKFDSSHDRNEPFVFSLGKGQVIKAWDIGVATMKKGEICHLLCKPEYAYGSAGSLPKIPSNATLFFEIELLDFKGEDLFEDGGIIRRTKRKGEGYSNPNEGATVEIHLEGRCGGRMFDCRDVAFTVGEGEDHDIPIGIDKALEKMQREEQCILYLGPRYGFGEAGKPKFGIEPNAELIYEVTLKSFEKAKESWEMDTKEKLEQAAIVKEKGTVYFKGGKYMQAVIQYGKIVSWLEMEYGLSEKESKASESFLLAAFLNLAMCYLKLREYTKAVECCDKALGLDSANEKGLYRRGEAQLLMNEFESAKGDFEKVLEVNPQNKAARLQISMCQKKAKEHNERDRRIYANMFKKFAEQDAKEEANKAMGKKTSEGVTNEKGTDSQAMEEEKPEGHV

FKBP12 [4] = target: T4, FKBP12; assay: FP assay, binding to human FKBPs (Table 1); settings: fluorescence polarization assay
LpMip = LpMip (Legionella pneumophila subsp. pneumophila, UniProt Q5ZXE0); assay: biochemical; assay type: binding
FKBP52 = target: T6, FKBP52 (Homo sapiens, UniProt Q02790); assay: FP assay, binding to human FKBPs (Table 1); settings: fluorescence polarization assay
T6 sequence (Q02790 1-459): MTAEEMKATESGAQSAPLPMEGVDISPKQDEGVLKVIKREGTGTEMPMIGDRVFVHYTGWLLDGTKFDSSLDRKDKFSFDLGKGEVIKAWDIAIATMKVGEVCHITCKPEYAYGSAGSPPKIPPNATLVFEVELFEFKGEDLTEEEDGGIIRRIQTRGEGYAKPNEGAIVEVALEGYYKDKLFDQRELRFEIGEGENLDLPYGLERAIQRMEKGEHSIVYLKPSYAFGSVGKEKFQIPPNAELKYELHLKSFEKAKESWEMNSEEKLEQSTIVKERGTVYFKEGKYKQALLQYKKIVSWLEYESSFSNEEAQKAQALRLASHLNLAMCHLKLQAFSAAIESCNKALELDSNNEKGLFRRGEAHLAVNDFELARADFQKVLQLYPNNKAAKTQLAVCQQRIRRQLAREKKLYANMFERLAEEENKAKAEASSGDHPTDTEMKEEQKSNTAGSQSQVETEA

T4 sequence (P62942 whole entry): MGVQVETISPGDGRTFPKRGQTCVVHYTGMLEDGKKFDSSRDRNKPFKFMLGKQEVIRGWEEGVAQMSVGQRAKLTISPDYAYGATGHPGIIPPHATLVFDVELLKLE
T1 sequence (P68106 whole entry): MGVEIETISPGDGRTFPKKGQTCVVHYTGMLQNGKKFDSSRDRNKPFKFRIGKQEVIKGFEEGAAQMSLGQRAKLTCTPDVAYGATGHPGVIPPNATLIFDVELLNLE
LpMip, sequence (Q5ZXE0 21-233 limits assumed): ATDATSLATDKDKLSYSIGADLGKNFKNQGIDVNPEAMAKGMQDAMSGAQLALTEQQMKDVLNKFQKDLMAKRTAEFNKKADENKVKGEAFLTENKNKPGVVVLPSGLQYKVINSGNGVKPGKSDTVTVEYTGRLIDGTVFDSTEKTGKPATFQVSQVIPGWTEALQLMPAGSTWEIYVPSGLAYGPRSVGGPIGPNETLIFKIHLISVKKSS

| SMILES | Ki (FKBP12.6 [1]) [nM] | Ki (FKBP52FK1) [nM] | Ki (FKBP51FK1) [nM] | Ki (FKBP12 [2]) [nM] | Ki (FKBP12.6 [3]) [nM] | Ki (FKBP51) [nM] | Ki (FKBP12 [4]) [nM] | Ki (LpMip) [nM] | Ki (FKBP52) [nM] |
| --- | --- | --- | --- | --- | --- | --- | --- | --- | --- |
| C=C[C@H]1CN(Cc2cn(CCOCC(=O)Nc3cccc4c3C(=O)N(C3CCC(=O)NC3=O)C4=O)nn2)C(=O)[C@@H]2CCC[C@H]1N2S(=O)(=O)c1cc(Cl)cc(Cl)c1 (some centres unmarked) [MTQ503] | 0.46 ± 0.1 | 1.9 ± 0.5 | 8 ± 1 | 0.2 ± 0.03 |  |  |  |  |  |
| C=C[C@H]1CN(Cc2cn(CCOCCOCCOCCOCC(=O)Nc3cccc4c3C(=O)N(C3CCC(=O)NC3=O)C4=O)nn2)C(=O)[C@@H]2CCC[C@H]1N2S(=O)(=O)c1cc(Cl)cc(Cl)c1 (some centres unmarked) [MTQ506] | 19 ± 2 | 30 ± 8 | 28 ± 5 | 1.5 ± 0.2 |  |  |  |  |  |
| C=C[C@H]1CN([C@@H](C)c2cn(CCOCCOCC(=O)Nc3cccc4c3C(=O)N(C3CCC(=O)NC3=O)C4=O)nn2)C(=O)[C@@H]2CCC[C@H]1N2S(=O)(=O)c1cc(Cl)cc(Cl)c1 (some centres unmarked) [MTQ514] | 2.4 ± 0.4 | 5.7 ± 1.7 | 4.4 ± 1.2 | 0.4 ± 0.1 |  |  |  |  |  |
| C=C[C@H]1CN([C@@H](C)c2cn(CCOCC(=O)Nc3cccc4c3C(=O)N(C3CCC(=O)NC3=O)C4=O)nn2)C(=O)[C@@H]2CCC[C@H]1N2S(=O)(=O)c1cc(Cl)cc(Cl)c1 (some centres unmarked) [MTQ513] | 0.41 ± 0.2 | 0.7 ± 0.3 | 2.3 ± 0.4 | 0.2 ± 0.02 |  |  |  |  |  |
| C=C[C@H]1CN(Cc2cn(CCOCCOCC(=O)Nc3cccc4c3C(=O)N(C3CCC(=O)NC3=O)C4=O)nn2)C(=O)[C@@H]2CCC[C@H]1N2S(=O)(=O)c1cc(Cl)cc(Cl)c1 (some centres unmarked) [MTQ504] | 17 ± 1.3 | 43 ± 11 | 25 ± 6 | 2.1 ± 0.2 |  |  |  |  |  |
| C=C[C@H]1CN([C@@H](C)c2cn(CCOCCOCCOCC(=O)Nc3cccc4c3C(=O)N(C3CCC(=O)NC3=O)C4=O)nn2)C(=O)[C@@H]2CCC[C@H]1N2S(=O)(=O)c1cc(Cl)cc(Cl)c1 (some centres unmarked) [MTQ515] | 4.8 ± 0.5 | 5 ± 1.2 | 3.2 ± 0.9 | 0.5 ± 0.1 |  |  |  |  |  |
| C=C[C@H]1CN(Cc2cn(CCOCCOCCOCCOCCOCC(=O)Nc3cccc4c3C(=O)N(C3CCC(=O)NC3=O)C4=O)nn2)C(=O)[C@@H]2CCC[C@H]1N2S(=O)(=O)c1cc(Cl)cc(Cl)c1 (some centres unmarked) [MTQ507] | 10 ± 1.2 | 60 ± 12 | 12 ± 2 | 0.7 ± 0.1 |  |  |  |  |  |
| C=C[C@H]1CN([C@@H](C)c2cn(CCOCCOCCOCCOCC(=O)Nc3cccc4c3C(=O)N(C3CCC(=O)NC3=O)C4=O)nn2)C(=O)[C@@H]2CCC[C@H]1N2S(=O)(=O)c1cc(Cl)cc(Cl)c1 (some centres unmarked) [MTQ516] | 3.7 ± 0.5 | 8.4 ± 2.3 | 4.2 ± 0.8 | 0.5 ± 0.1 |  |  |  |  |  |
| C=C[C@H]1CN([C@@H](C)c2cn(CCOCCOCCOCCOCCOCC(=O)Nc3cccc4c3C(=O)N(C3CCC(=O)NC3=O)C4=O)nn2)C(=O)[C@@H]2CCC[C@H]1N2S(=O)(=O)c1cc(Cl)cc(Cl)c1 (some centres unmarked) [MTQ517] | 1.5 ± 0.3 | 4.9 ± 1.1 | 2.1 ± 0.4 | 0.4 ± 0.05 |  |  |  |  |  |
| C=C[C@H]1CN([C@@H](C)c2ccccn2)C(=O)[C@@H]2CCC[C@H]1N2S(=O)(=O)c1cc(Cl)cc(Cl)c1 [6d, (1S,5S,6R)-10-((3,5-dichlorophenyl)sulfonyl)-3-((S)-1-(pyridin-2-yl)ethyl)-5-vinyl-3,10-diazabicyclo[4.3.1]decan-2-one] |  |  |  |  | 0.41 | 2.6 | 0.15 | 171 | 2.2 |
| C=C[C@H]1CN(Cc2cn(CCOCCOCCOCC(=O)Nc3cccc4c3C(=O)N(C3CCC(=O)NC3=O)C4=O)nn2)C(=O)[C@@H]2CCC[C@H]1N2S(=O)(=O)c1cc(Cl)cc(Cl)c1 (some centres unmarked) [MTQ505] | 21 ± 2 | 16 ± 5 | 17 ± 4 | 2.4 ± 0.2 |  |  |  |  |  |
| COC[C@H]1CN([C@@H](C)c2ccccn2)C(=O)[C@@H]2CCC[C@H]1N2S(=O)(=O)c1cc(Cl)cc(Cl)c1 [24b, (1S,5S,6R)-10-((3,5-dichlorophenyl)sulfonyl)-5-(methoxymethyl)-3-((S)-1-(pyridin-2-yl)ethyl)-3,10-diazabicyclo[4.3.1]decan-2-one] |  |  |  |  | 0.41 | 0.83 | 0.04 | 36 | 0.35 |
